Consider 23 compounds from patent publication US20250145589A1, “PYRIDINE DERIVATIVE AND USE THEREOF” (SICHUAN HUIYU PHARMACEUTICAL CO., LTD., priority 2021, published 2025).

SMILES strings stand for the structures.

Assay [1] concerns NCI-H358 cells (KRAS G12C mutant). As to the kind of experiment: NCI-H358 cell proliferation inhibition (CellTiter-Glo). As to conditions: Homo sapiens, NCI-H358, 72 h; H358 cells (G12C mutation), 3 days, Table 6; read-out: NCI-H358 (IC50). Format: cell-based.
Assay [2] relates to MIA PaCa-2-AMGR drug-resistant cell line. As to the kind of experiment: MIA PaCa-2-AMGR drug-resistant cell proliferation inhibitory activity test. In kind it is cell-based. As to conditions: 72 h, MIA PaCa-2-AMGR drug-resistant cells, 3 days incubation, CellTiter-Glo. The essentials: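 Viability was read by CellTiter-Glo luminescence after 3 days of compound exposure (8 points, 5-fold serial dilution), with IC50 derived relative to untreated control. Cells: AMG510-resistant MIA PaCa-2 (selected stepwise to 1 μM AMG510), 4×10^3/well, DMEM + 10% FBS + 2.5% horse serum, 37° C.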
A general note: ATP-based viability assays read luminescence as a measure of living cells.

The IC50 is the point on the concentration scale where inhibition reaches its midpoint. `COc1ncc(-c2ccc3ncnc(N4CC5CCC(C4)N5C(=O)/C=C/C(C)=O)c3c2)cc1NS(=O)(=O)c1sc(C)nc1C` [Example 176, N-(2-methoxy-5-(4-(8-((E)-4-oxopent-2-enoyl)-3,8-diazabicyclo [3.2.1]octan-3-yl)quinazolin-6-yl)pyridin-3-yl)-2,4-dimethyl-thiazole-5-sulfonamide]: the IC50 in assay [1] is 27 nM; in assay [2], 48.6 nM.
For `COc1ncc(-c2ccc3ncnc(N4CCN(C(=O)/C=C/C(C)=O)CC4)c3c2)cc1NS(=O)(=O)c1ccc(Cl)cc1F` [Example 177, (E)-4-chloro-2-fluoro-N-(2-methoxy-5-(4-(4-(4-oxopent-2-enoyl)piperazin-1-yl)quinazolin-6-yl)pyridin-3-yl)benzene-sulfonamide], the concentration for half-maximal inhibition (IC50) came out at 36.1 nM in assay [1] and 36.6 nM in assay [2].
On to `COc1ncc(-c2ccc3ncnc(N4CCC5(CC4)CN(C(=O)/C=C/C(C)=O)C5)c3c2)cc1NS(=O)(=O)c1sc(C)nc1C` [Example 178, (E)-N-(2-methoxy-5-(4-(2-(4-oxopent-2-enoyl)-2,7-diazaspiro[3.5]nonan-7-yl)quinazolin-6-yl)pyridin-3-yl)-2,4-dimethyl-thiazole-5-sulfonamide], for which the 50% inhibitory concentration (IC50) in assay [1] came out at 25.3 nM; in assay [2], 34 nM.
With `COC(=O)c1ncc(-c2ccc3ncnc(N4CCN(C(=O)/C=C/C(C)=O)CC4)c3c2)cc1NS(=O)(=O)c1ccc(F)cc1F` [Example 181, methyl (E)-3-((2,4-difluoro-phenyl)sulfonamido)-5-(4-(4-(4-oxopent-2-enoyl)piperazin-1-yl)quinazolin-6-yl)picolinate], the IC50 in assay [1] was determined as 49.7 nM; in assay [2], 118 nM.
Consider `COc1ccc(Cl)c(S(=O)(=O)Nc2cc(-c3ccc4ncnc(N5CCN(C(=O)/C=C/C(C)=O)CC5)c4c3)cnc2OC)c1` [Example 184, (E)-2-chloro-5-methoxy-N-(2-methoxy-5-(4-(4-(4-oxopent-2-enoyl)piperazin-1-yl)quinazolin-6-yl)pyridin-3-yl)benzene-sulfonamide], for which the IC50 in assay [1] stood at 73.8 nM; in assay [2], 176 nM.
For `[2H]C([2H])([2H])Oc1ncc(-c2ccc3ncnc(N4CCN(C(=O)/C=C/C(C)=O)CC4)c3c2)cc1NS(=O)(=O)c1ccc(F)cc1F` [Example 191, (E)-2,4-difluoro-N-(2-(methoxy-d3)-5-(4-(4-(4-oxopent-2-enoyl)piperazin-1-yl)quinazolin-6-yl)pyridin-3-yl)benzene-sulfonamide], the IC50 worked out at 20.2 nM in assay [1] and 40.8 nM in assay [2].
With `COc1ncc(-c2ccc3ncnc(C4=CCN(C(=O)/C=C/C(C)=O)CC4)c3c2)cc1NS(=O)(=O)c1ccc(F)cc1F` [Example 198, (E)-2,4-difluoro-N-(2-methoxy-5-(4-(1-(4-oxopent-2-enoyl)-1,2,3,6-tetrahydropyridin-4-yl)quinazolin-6-yl)pyridin-3-yl)benzenesulfonamide], the IC50 in assay [1] is 12.2 nM; in assay [2], 10.7 nM.
As for `COc1ncc(-c2ccc3ncnc(C4=CCN(C(=O)/C=C/C(C)=O)CC4)c3c2)cc1NS(=O)(=O)c1sc(C)nc1C` [Example 199, (E)-N-(2-methoxy-5-(4-(1-(4-oxopent-2-enoyl)-1,2,3,6-tetrahydropyridin-4-yl)quinazolin-6-yl)pyridin-3-yl)-2,4-dimethylthiazole-5-sulfonamide], the IC50 in assay [1] was 12 nM; in assay [2], 19.1 nM.
The like results for `COc1ncc(-c2ccc3ncnc(C4=CCN(C(=O)/C=C/C(C)=O)CC4)c3c2)cc1NS(=O)(=O)c1ccccc1F` [Example 200, (E)-2-fluoro-N-(2-methoxy-5-(4-(1-(4-oxopent-2-enoyl)-1,2,3,6-tetrahydropyridin-4-yl)quinazolin-6-yl)pyridin-3-yl)benzene-sulfonamide] were, in that order, 10.9 nM and 4.3 nM.
Consider `COc1ncc(-c2ccc3ncnc(C4=CCN(C(=O)/C=C/C(C)=O)CC4)c3c2)cc1NS(=O)(=O)c1c(F)cccc1F` [Example 201, (E)-2,6-difluoro-N-(2-methoxy-5-(4-(1-(4-oxopent-2-enoyl)-1,2,3,6-tetrahydropyridin-4-yl)quinazolin-6-yl)pyridin-3-yl)benzenesulfonamide], for which the IC50 in assay [1] amounted to 7.2 nM; in assay [2] it was 11.1 nM.
Taken in the same sequence, the figures for `COc1ncc(-c2ccc3ncnc(C4=CCN(C(=O)/C=C/C(C)=O)CC4)c3c2)cc1NS(=O)(=O)c1c(F)cccc1Cl` [Example 202, (E)-2-chloro-6-fluoro-N-(2-methoxy-5-(4-(1-(4-oxopent-2-enoyl)-1,2,3,6-tetrahydropyridin-4-yl)quinazolin-6-yl)pyridin-3-yl)benzene-sulfonamide] were 5.2 nM and 13 nM.
Taken in the same sequence, the figures for `COc1ncc(-c2ccc3ncnc(C4CCN(C(=O)/C=C/C(C)=O)CC4)c3c2)cc1NS(=O)(=O)c1sc(C)nc1C` [Example 203, (E)-N-(2-methoxy-5-(4-(1-(4-oxopent-2-enoyl)piperidin-4-yl)quinazolin-6-yl)pyridin-3-yl)-2,4-dimethylthiazole-5-sulfonamide] were 8.5 nM and 16.7 nM.
Turning to `COc1ncc(-c2ccc3ncnc(C4CCN(C(=O)/C=C/C(C)=O)CC4)c3c2)cc1NS(=O)(=O)c1ccccc1F` [Example 204, (E)-2-fluoro-N-(2-methoxy-5-(4-(1-(4-oxopent-2-enoyl)piperidin-4-yl)quinazolin-6-yl)pyridin-3-yl)benzenesulfonamide], the IC50 is 25.2 nM in assay [1] and 45.8 nM in assay [2].
For `COc1ncc(-c2ccc3ncnc(C4CCN(C(=O)/C=C/C(C)=O)CC4)c3c2)cc1NS(=O)(=O)c1c(F)cccc1F` [Example 205, (E)-2,6-difluoro-N-(2-methoxy-5-(4-(1-(4-oxopent-2-enoyl)piperidin-4-yl)quinazolin-6-yl)pyridin-3-yl) benzenesulfonamide], the IC50 worked out at 14.3 nM in assay [1] and 32.9 nM in assay [2].
Regarding `COc1ncc(-c2ccc3ncnc(C4CCN(C(=O)/C=C/C(C)=O)CC4)c3c2)cc1NS(=O)(=O)c1c(F)cccc1Cl` [Example 206, (E)-2-chloro-6-fluoro-N-(2-methoxy-5-(4-(1-(4-oxopent-2-enoyl)piperidin-4-yl)quinazolin-6-yl)pyridin-3-yl) benzenesulfonamide], the IC50 in assay [1] was determined as 8 nM; in assay [2], 6.9 nM.
In the case of `COc1ncc(-c2ccc3ncnc(N4CCN(C(=O)/C=C/C(C)=O)CC4)c3n2)cc1NS(=O)(=O)c1c(F)cncc1F` [Example 210, (E)-3,5-difluoro-N-(2-methoxy-5-(4-(4-(4-oxopent-2-enoyl)piperazin-1-yl)pyrido[3,2-d]pyrimidin-6-yl)pyridin-3-yl)pyridine-4-sulfonamide], the IC50 was determined as 53.4 nM in assay [1] and 97.4 nM in assay [2].
For `COc1ncc(-c2ccc3ncnc(N4CCN(C(=O)/C=C/C(C)=O)CC4)c3n2)cc1NS(=O)(=O)c1cc(F)ccc1F` [Example 217, (E)-2,5-difluoro-N-(2-methoxy-5-(4-(4-(4-oxopent-2-enoyl)piperazin-1-yl)pyrido[3,2-d]pyrimidin-6-yl)pyridin-3-yl) benzene-sulfonamide], the IC50 in assay [1] stood at 27 nM; in assay [2], 21.4 nM.
Regarding `COc1ncc(-c2ccc3ncnc(N4CCN(C(=O)/C=C/C(C)=O)CC4)c3n2)cc1NS(=O)(=O)c1cccc(F)c1F` [Example 218, (E)-2,3-difluoro-N-(2-methoxy-5-(4-(4-(4-oxopent-2-enoyl)piperazin-1-yl)pyrido[3,2-d]pyrimidin-6-yl)pyridin-3-yl) benzene-sulfonamide], the values for the IC50 in assay [1] and in assay [2] were 25.6 nM and 16.1 nM, respectively.
Regarding `COc1ncc(-c2ccc3ncnc(N4CCN(C(=O)/C=C/C(C)=O)CC4)c3n2)cc1NS(=O)(=O)c1c(F)cc(F)cc1F` [Example 219, (E)-2,4-trifluoro-N-(2-methoxy-5-(4-(4-(4-oxopent-2-enoyl)piperazin-1-yl)pyrido[3,2-d]pyrimidin-6-yl)pyridin-3-yl) benzene-sulfonamide], the half-maximal inhibitory concentration (IC50) turned out to be 7.3 nM in assay [1] and 6.4 nM in assay [2].
Take `COc1ncc(-c2ccc3ncnc(N4CCN(C(=O)/C=C/C(C)=O)CC4)c3n2)cc1NS(=O)(=O)c1ccncc1F` [Example 220, (E)-3-fluoro-N-(2-methoxy-5-(4-(4-(4-oxopent-2-enoyl)piperazin-1-yl)pyrido[3,2-d]pyrimidin-6-yl)pyridin-3-yl) pyridine-4-sulfonamide]: the results for the IC50 in assay [1] and in assay [2] were 61.5 nM and 212 nM, respectively.
Taken in the same sequence, the figures for `COc1ncc(-c2ccc3ncnc(N4CCN(C(=O)/C=C/C(C)=O)CC4)c3n2)cc1NS(=O)(=O)c1c(Cl)cncc1Cl` [Example 224, (E)-3,5-dichloro-N-(2-methoxy-5-(4-(4-(4-oxopent-2-enoyl)piperazin-1-yl)pyrido[3,2-d]pyrimidin-6-yl)pyridin-3-yl) pyridine-4-sulfonamide] were 88.1 nM and 144 nM.
As for `COc1ncc(-c2ccc3ncnc(N4CCN(C(=O)/C=C/C(C)=O)CC4)c3n2)cc1NS(=O)(=O)c1c(F)cccc1Cl` [Example 225, (E)-2-chloro-6-fluoro-N-(2-methoxy-5-(4-(4-(4-oxopent-2-enoyl)piperazin-1-yl)pyrido[3,2-d]pyrimidin-6-yl)pyridin-3-yl) benzene-sulfonamide], the figures for the IC50 in assay [1] and in assay [2] were 13.5 nM and 26 nM, respectively.
As for `COc1ncc(-c2ccc3ncnc(N4CCN(C(=O)/C=C/C(C)=O)[C@H](C)C4)c3n2)cc1NS(=O)(=O)c1ccccc1F` [Example 228, (R,E)-2-fluoro-N-(2-methoxy-5-(4-(3-methyl-4-(4-oxopent-2-enoyl)piperazin-1-yl)pyrido[3,2-d]pyrimidin-6-yl)pyridin-3-yl)benzene-sulfonamide], the IC50 in assay [1] amounted to 13.2 nM; in assay [2], 13.5 nM.
